Measured values: patent US10780101B2, “Amide derivatives of squalamine for the treatment of infections” (VIRBAC, priority 2016, dated 2020)
In brackets after ≈: the same amount, converted by molar mass.

Key:
[1] = system: P. aeruginosa Animal (1051575); assay: MIC determination, P. aeruginosa animal (1051575); format: cell-based; conditions: Pseudomonas aeruginosa; Gram-negative; Mueller-Hinton medium, 24 h at 37° C.
Protocol: (§1) A negative control (2 mL of sterile culture medium)
(§2) A positive control (1940 μL of culture medium+40 μL of DMSO+20 μL of the bacterial suspension) from a thawed biological strain (the biological strains are stored at −80° C. in glycerol).
(§3) The tubes were incubated at 37° C. for 24 hours at 100 rpm.
(§4) The microorganisms were handled under a type L2 laboratory fume cupboard and, before any handling, a UV cycle was programmed and only sterile material was used. […] The chemical compounds to be tested were prepared in a DMSO/methanol mixture (50/50) at a concentration of 5 mg/mL.
(§5) After 24 hours of incubation, a measurement of the optical density was taken using a spectrophotometer at 600 nm, collecting 100 μL of the bacterial suspension diluted in 900 μL of the sterile culture medium. This test required the use of a 96-well plate and the required volume of the microbial suspension to be seeded was calculated for an OD corresponding to a value equal to 0.01 in each well. In this plate, the first line corresponded to the negative control (195 μL of sterile culture medium in each well), the second line corresponded to the positive control (seeded culture medium supplemented with 2% of DMSO), and the third line was loaded twice with bacterial suspension; 8 μL of test product were placed in each well. Thereafter, a 0.5 cascade dilution was performed from this line.
(§6) The first column served as inhibition control. A sterile filter was then placed on the microplate, allowing the passage of gases but not of contaminants. The microplate was incubated at 37° C. under a humid atmosphere for 24 hours.
(§7) NB: The medium used is Mueller-Hinton (MH) medium for bacteria. All the tests were performed in duplicate.
(§8) After incubation, the filter was replaced with a transparent film, and an OD reading was then taken in an iEMS plate spectrophotometer at 620 nm. Calculation of the minimum inhibitory concentration (MIC) was performed.

[2] = system: P. aeruginosa Human ATCC 27853; assay: MIC determination, P. aeruginosa human ATCC 27853; format: cell-based; conditions: Pseudomonas aeruginosa, ATCC27853; Gram-negative; Mueller-Hinton medium, 24 h at 37° C.
Protocol: as §1, §2, §3, §4, §5, §6, §7, §8

CHO-K1 cells = assay: WST1 cytotoxicity test on CHO-K1 cells; format: cell-based, Chinese hamster; conditions: Cricetulus griseus, CHO-K1, 24 h, read-out: IC50 (μg/mL) CHO
Protocol: Test WST1 was used to measure the cytotoxic activity of the products. This is a colorimetric test which makes it possible to measure the viability and the degree of cell proliferation. It is based on cleavage of the colorless tetrazolium salts WST-1 (4-[3-(4-iodophenyl)-2-(4-nitrophenyl)-2H-5-tetrazolio]-1,3-benzene disulfonate) with mitochondrial dehydrogenases to the yellow-colored formazan derivative, which may be quantified by spectrophotometry at 420-480 nm.
The WST1 test was performed on Chinese hamster ovary cells. The CHO-K1 cells (ATCC, USA) are kept in culture in McCoy's 5A medium supplemented with 10% fetal calf serum, 2 mM of L-glutamine and a mixture of penicillin-streptomycin (100 U/ml: 10 μg/ml). The culture is incubated at 37° C. under an atmosphere enriched in CO2 (5%), and subcultured every two days.
The cells are transferred into 96-well plates (25000 cells/mL) in whole McCoy's 5A medium, and maintained for 24 hours at 37° C. under a humid atmosphere enriched in CO2 (5%). Increasing concentrations of test products are added to the wells in double tests and 8 growth controls containing the cells in the medium alone are included in each series of tests. After 24 hours at 37° C. (5% CO2), the culture medium is removed, the cells are rinsed in phosphate buffer (PBS) and 50 μL of PBS containing 10% of reagent WST1 are added to each well. After 20 minutes of incubation at 37° C., the results are read by spectrophotometry at 450 nm.
The results are expressed in dose-response relationships, modeled by nonlinear regression analysis using the TableCurve software. The 50% inhibitory concentration (IC50) represents the concentration of product that is capable of reducing the cell viability by 50%.

[3] = system: S. aureus Human ATCC 25923; assay: MIC determination, S. aureus human ATCC 25923; format: cell-based; conditions: Staphylococcus aureus, ATCC25923; Gram-positive; Mueller-Hinton medium, 24 h at 37° C.
Protocol: as §1, §2, §3, §4, §5, §6, §7, §8

E. coli Animal (1956) = assay: MIC determination, E. coli animal (1956); format: cell-based; conditions: Escherichia coli; Gram-negative; Mueller-Hinton medium, 24 h at 37° C.
Protocol: as §1, §2, §3, §4, §5, §6, §7, §8

[4] = system: S. intermedius Animal (1051997); assay: MIC determination, S. intermedius animal (1051997); format: cell-based; conditions: Staphylococcus intermedius; Gram-positive; Mueller-Hinton medium, 24 h at 37° C.
Protocol: as §1, §2, §3, §4, §5, §6, §7, §8

S. aureus Animal (340) = assay: MIC determination, S. aureus animal (340); format: cell-based; conditions: Staphylococcus aureus; Gram-positive; Mueller-Hinton medium, 24 h at 37° C.
Protocol: as §1, §2, §3, §4, §5, §6, §7, §8

P. aeruginosa (1051575) = assay: Potentiation of doxycycline activity (combination MIC); format: cell-based, Pseudomonas aeruginosa; conditions: in presence of doxycycline 2 μg/mL; 24 hours at 37° C.
E. coli Human ATCC 28922 = assay: MIC determination, E. coli human ATCC 28922; format: cell-based; conditions: Escherichia coli, ATCC28922; Gram-negative; Mueller-Hinton medium, 24 h at 37° C.
Protocol: as §1, §2, §3, §4, §5, §6, §7, §8

[5] = system: E. faecalis Human ATCC 29212; assay: MIC determination, E. faecalis human ATCC 29212; format: cell-based; conditions: Enterococcus faecalis, ATCC29212; Gram-positive; Mueller-Hinton medium, 24 h at 37° C.
Protocol: as §1, §2, §3, §4, §5, §6, §7, §8

SMILES	MIC [1]	MIC [2]	IC50 (CHO-K1 cells)	MIC [3]	MIC (E. coli Animal (1956))	MIC [4]	MIC (S. aureus Animal (340))	MIC - P. aeruginosa (1051575): content of compound of formula (I) to restore the doxycycline activity (at 2 μg/mL) (P. aeruginosa (1051575))	MIC (E. coli Human ATCC 28922)	MIC [5]
CC(C)NC(=O)CC[C@@H](C)[C@H]1CCC2C3C(CC[C@@]21C)[C@@]1(C)CC[C@H](NCCCN(C)CCCN)CC1C[C@@H]3O (stereo partly drawn) [(28), 3β-(bis(3-aminopropyl)methylamine)-N-isopropylursodeoxycholamide]	112 µg/mL (≈ 200 µM)	112 µg/mL (≈ 200 µM)	28 µg/mL (≈ 49.9 µM)	28 µg/mL (≈ 49.9 µM)	112 µg/mL (≈ 200 µM)	14 µg/mL (≈ 25 µM)	28 µg/mL (≈ 49.9 µM)	7 µg/mL	56 µg/mL (≈ 99.8 µM)	56 µg/mL (≈ 99.8 µM)
CC(C)NC(=O)CC[C@@H](C)[C@H]1CCC2C3C(CC[C@@]21C)[C@@]1(C)CC[C@H](NCCNCCNCCNCCNCCN)CC1C[C@H]3O (stereo partly drawn) [(22), 3β-(pentaethylenehexamine)-N-isopropylchenodeoxycholamide]	65 µg/mL (≈ 100 µM)	130 µg/mL (≈ 201 µM)	120 µg/mL (≈ 185 µM)	8 µg/mL (≈ 12.3 µM)	32 µg/mL (≈ 49.4 µM)	2 µg/mL (≈ 3.09 µM)	8 µg/mL (≈ 12.3 µM)	4 µg/mL	32 µg/mL (≈ 49.4 µM)	32 µg/mL (≈ 49.4 µM)
CC(C)NC(=O)CC[C@@H](C)[C@H]1CCC2C3CCC4C[C@@H](NCCCN(C)CCCN)CC[C@]4(C)C3CC[C@@]21C (stereo partly drawn) [(29), 3β-(bis(3-aminopropyl)methylamine)-N-isopropyllithocholamide]	112 µg/mL (≈ 206 µM)	112 µg/mL (≈ 206 µM)	6 µg/mL (≈ 11 µM)	14 µg/mL (≈ 25.7 µM)	28 µg/mL (≈ 51.4 µM)	7 µg/mL (≈ 12.8 µM)	14 µg/mL (≈ 25.7 µM)	7 µg/mL	28 µg/mL (≈ 51.4 µM)	28 µg/mL (≈ 51.4 µM)
CC(C)NC(=O)CC[C@@H](C)[C@H]1CCC2C3CCC4C[C@@H](NCCNCCNCCNCCNCCN)CC[C@]4(C)C3CC[C@@]21C (stereo partly drawn) [(24)]	128 µg/mL (≈ 203 µM)	128 µg/mL (≈ 203 µM)	35 µg/mL (≈ 55.4 µM)	8 µg/mL (≈ 12.7 µM)	64 µg/mL (≈ 101 µM)	4 µg/mL (≈ 6.33 µM)	8 µg/mL (≈ 12.7 µM)	8 µg/mL	32 µg/mL (≈ 50.6 µM)	16 µg/mL (≈ 25.3 µM)
CNC(=O)CC[C@@H](C)[C@H]1CCC2C3C(CC[C@@]21C)[C@@]1(C)CC[C@H](NCCCNCCCCNCCCN)CC1C[C@H]3O (stereo partly drawn) [Compound (33)]	2 µg/mL (≈ 3.39 µM)	7 µg/mL (≈ 11.9 µM)	35 µg/mL (≈ 59.3 µM)	3.5 µg/mL (≈ 5.93 µM)	7 µg/mL (≈ 11.9 µM)	0.8 µg/mL (≈ 1.36 µM)	1 µg/mL (≈ 1.7 µM)	1 µg/mL	14 µg/mL (≈ 23.7 µM)	14 µg/mL (≈ 23.7 µM)
CC(C)NC(=O)CC[C@@H](C)[C@H]1CCC2C3CCC4C[C@@H](NCCCNCCCN)CC[C@]4(C)C3CC[C@@]21C (stereo partly drawn) [(18), 3β-norspermidino-N-isopropyllithocholamide]	26 µg/mL (≈ 49 µM)	104 µg/mL (≈ 196 µM)	20 µg/mL (≈ 37.7 µM)	6 µg/mL (≈ 11.3 µM)	3 µg/mL (≈ 5.65 µM)	0.8 µg/mL (≈ 1.51 µM)	3 µg/mL (≈ 5.65 µM)	0.8 µg/mL	26 µg/mL (≈ 49 µM)	12 µg/mL (≈ 22.6 µM)
